Results: ChEMBL document CHEMBL4257566, “Design, synthesis and structure-based optimization of novel isoxazole-containing benzamide derivatives as FtsZ modulators” (Eur J Med Chem, 2018)
Converted amounts (≈) assume the structure as drawn.

Legend:
Format in all cases: functional
[1] = system: Bacillus subtilis; test: Antibacterial activity against Bacillus subtilis ATCC 9372 after 24 hrs by broth microdilution based CLSI method; settings: ATCC 9372, 24 h
[2] = system: Bacillus pumilus; test: Antibacterial activity against Bacillus pumilus CMCC63202 after 24 hrs by broth microdilution based CLSI method; settings: CMCC63202, 24 h
[3] = system: Staphylococcus aureus; test: Antibacterial activity against Staphylococcus aureus ATCC 25923 after 24 hrs by broth microdilution based CLSI method; settings: ATCC 25923, 24 h
[4] = system: Staphylococcus aureus; test: Antibacterial activity against methicillin-resistant Staphylococcus aureus ATCC 43300 after 24 hrs by broth microdilution based CLSI method; settings: ATCC 43300, 24 h
[5] = system: Staphylococcus aureus; test: Antibacterial activity against clinical isolate of penicillin-resistant Staphylococcus aureus after 24 hrs by broth microdilution based CLSI method
[6] = system: Escherichia coli; test: Antibacterial activity against Escherichia coli ATCC 25922 after 24 hrs by broth microdilution based CLSI method; settings: ATCC 25922, 24 h
[7] = system: Pseudomonas aeruginosa; test: Antibacterial activity against Pseudomonas aeruginosa ATCC 27853 after 24 hrs by broth microdilution based CLSI method; settings: ATCC 27853, 24 h

SMILES	MIC [1] [µg/mL]	MIC [2] [µg/mL]	MIC [3] [µg/mL]	MIC [4] [µg/mL]	MIC [5] [µg/mL]	MIC [6] [µg/mL]	MIC [7] [µg/mL]
Cc1c(COc2ccc(F)c(C(N)=O)c2F)noc1-c1ccc(C(C)(C)C)cc1	0.5 (≈ 1.25 µM)	1 (≈ 2.5 µM)	> 64	> 64	> 64	> 64	> 64
CCCOc1ccc(-c2cc(COc3ccc(F)c(C(N)=O)c3F)no2)cc1	> 64	> 64	> 64	> 64	> 64	> 64	> 64
CCOc1ccc(-c2cc(COc3ccc(F)c(C(N)=O)c3F)on2)cc1	1 (≈ 2.67 µM)	> 64	> 64	> 64	> 64	> 64	> 64
NC(=O)c1c(F)ccc(OCc2cc(-c3ccccc3)on2)c1F	64 (≈ 194 µM)	> 64	> 64	> 64	> 64	> 64	> 64
NC(=O)c1c(F)ccc(OCc2cc(-c3ccc(Cl)cc3Cl)no2)c1F	0.5 (≈ 1.25 µM)	0.5 (≈ 1.25 µM)	8 (≈ 20 µM)	4 (≈ 10 µM)	> 64	> 64	> 64
NC(=O)c1c(F)ccc(OCc2cc(-c3ccc(Cl)cc3Cl)on2)c1F	0.5 (≈ 1.25 µM)	8 (≈ 20 µM)	> 64	> 64	> 64	> 64	> 64
COc1ccccc1-c1cc(COc2ccc(F)c(C(N)=O)c2F)on1	> 64	> 64	> 64	> 64	> 64	> 64	> 64
NC(=O)c1c(F)ccc(OCc2cc(-c3ccc(C4CCCCC4)cc3)no2)c1F	> 64	> 64	> 64	> 64	> 64	> 64	> 64
NC(=O)c1c(F)ccc(OCc2cc(-c3ccc(Cl)cc3)no2)c1F	4 (≈ 11 µM)	> 64	> 64	> 64	> 64	> 64	> 64
NC(=O)c1c(F)ccc(OCc2cc(-c3cccs3)no2)c1F	32 (≈ 95.1 µM)	> 64	> 64	> 64	> 64	> 64	> 64
COc1ccc(-c2cc(COc3ccc(F)c(C(N)=O)c3F)on2)cc1OC	> 64	> 64	> 64	> 64	> 64	> 64	> 64
NC(=O)c1c(F)ccc(OCc2cc(-c3ccc(Cl)cc3)on2)c1F	64 (≈ 175 µM)	> 64	> 64	> 64	> 64	> 64	> 64
NC(=O)c1c(F)ccc(OCc2cc(-c3ccc(F)cc3)no2)c1F	4 (≈ 11.5 µM)	> 64	> 64	> 64	> 64	> 64	> 64
NC(=O)c1c(F)ccc(OCc2cc(-c3ccc(-c4ccccn4)cc3)no2)c1F	64 (≈ 157 µM)	> 64	> 64	> 64	> 64	> 64	> 64
NC(=O)c1c(F)ccc(OCc2cc(-c3ccc4c(c3)OCO4)no2)c1F	4 (≈ 10.7 µM)	> 64	> 64	> 64	> 64	> 64	> 64
NC(=O)c1c(F)ccc(OCc2cc(-c3ccc(-c4ccccc4)cc3)no2)c1F	> 64	> 64	> 64	> 64	> 64	> 64	> 64
Cc1ccc(-c2cc(COc3ccc(F)c(C(N)=O)c3F)on2)cc1	8 (≈ 23.2 µM)	> 64	> 64	> 64	> 64	> 64	> 64
CCCOc1cccc(-c2cc(COc3ccc(F)c(C(N)=O)c3F)no2)c1	4 (≈ 10.3 µM)	> 64	> 64	> 64	> 64	> 64	> 64
CCCCc1ccc(-c2cc(COc3ccc(F)c(C(N)=O)c3F)no2)cc1	0.06 (≈ 0.155 µM)	> 64	> 64	> 64	> 64	> 64	> 64
NC(=O)c1c(F)ccc(OCc2cc(-c3ccccc3)no2)c1F	64 (≈ 194 µM)	> 64	> 64	> 64	> 64	> 64	> 64

SMILES	MIC [1] [µg/mL]	MIC [2] [µg/mL]	MIC [3] [µg/mL]	MIC [4] [µg/mL]	MIC [5] [µg/mL]	MIC [6] [µg/mL]	MIC [7] [µg/mL]
CCCCCc1ccc(-c2cc(COc3ccc(F)c(C(N)=O)c3F)on2)cc1	1 (≈ 2.5 µM)	> 64	> 64	> 64	> 64	> 64	> 64
NC(=O)c1c(F)ccc(OCc2cc(-c3ccc(Br)cc3)no2)c1F	1 (≈ 2.44 µM)	> 64	> 64	> 64	> 64	> 64	> 64
CCOc1cccc(-c2cc(COc3ccc(F)c(C(N)=O)c3F)on2)c1	2 (≈ 5.34 µM)	16 (≈ 42.7 µM)	> 64	> 64	> 64	> 64	> 64
CCCOc1ccc(-c2cc(COc3ccc(F)c(C(N)=O)c3F)on2)cc1	16 (≈ 41.2 µM)	> 64	> 64	> 64	> 64	> 64	> 64
NC(=O)c1c(F)ccc(OCc2cc(-c3ccc(Cl)c(Cl)c3)no2)c1F	64 (≈ 160 µM)	> 64	> 64	> 64	> 64	> 64	> 64
NC(=O)c1c(F)ccc(OCc2cc(-c3ccc(Cl)c(Cl)c3)on2)c1F	> 64	> 64	> 64	> 64	> 64	> 64	> 64
Cc1ccc(-c2cc(COc3ccc(F)c(C(N)=O)c3F)no2)cc1	64 (≈ 186 µM)	> 64	> 64	> 64	> 64	> 64	> 64
CCOc1ccc(-c2cc(COc3ccc(F)c(C(N)=O)c3F)no2)cc1	> 64	> 64	> 64	> 64	> 64	> 64	> 64
Cc1cccc(-c2cc(COc3ccc(F)c(C(N)=O)c3F)no2)c1	32 (≈ 92.9 µM)	> 64	> 64	> 64	> 64	> 64	> 64
CCCCOc1ccc(-c2cc(COc3ccc(F)c(C(N)=O)c3F)on2)cc1	> 64	> 64	> 64	> 64	> 64	> 64	> 64
COc1cccc(-c2cc(COc3ccc(F)c(C(N)=O)c3F)on2)c1	64 (≈ 178 µM)	> 64	> 64	> 64	> 64	> 64	> 64
NC(=O)c1c(F)ccc(OCc2cc(-c3ccco3)no2)c1F	32 (≈ 99.9 µM)	> 64	> 64	> 64	> 64	> 64	> 64
NC(=O)c1c(F)ccc(OCc2noc(-c3ccc(Cl)cc3)c2Br)c1F	> 64	> 64	> 64	> 64	> 64	> 64	> 64
COc1ccc(-c2cc(COc3ccc(F)c(C(N)=O)c3F)no2)cc1	64 (≈ 178 µM)	> 64	> 64	> 64	> 64	> 64	> 64
CC(C)(C)c1ccc(-c2onc(COc3ccc(F)c(C(N)=O)c3F)c2Br)cc1	1 (≈ 2.15 µM)	1 (≈ 2.15 µM)	> 64	> 64	> 64	> 64	> 64
NC(=O)c1c(F)ccc(OCc2cc(-c3ccc(-c4cccc5ccccc45)cc3)no2)c1F	> 64	> 64	> 64	> 64	> 64	> 64	> 64
CC(C)=Cc1cc(COc2ccc(F)c(C(N)=O)c2F)on1	32 (≈ 104 µM)	> 64	> 64	> 64	> 64	> 64	> 64
COc1ccc(-c2cc(COc3ccc(F)c(C(N)=O)c3F)on2)cc1	3 (≈ 8.33 µM)	> 64	64 (≈ 178 µM)	4 (≈ 11.1 µM)	> 64	> 64	> 64
CCCOc1cccc(-c2cc(COc3ccc(F)c(C(N)=O)c3F)on2)c1	64 (≈ 165 µM)	> 64	> 64	> 64	> 64	> 64	> 64
CC(C)c1ccc(-c2cc(COc3ccc(F)c(C(N)=O)c3F)on2)cc1	2 (≈ 5.37 µM)	32 (≈ 85.9 µM)	> 64	> 64	> 64	> 64	> 64
